Results as given in patent EP3723745B1, “PHENOXY ACIDS FOR THE TREATMENT OF NEUROMUSCULAR DISORDERS” (NMD Pharma A/S, priority 2017, dated 2019).

Key:
[1] = target: T1, CIC-1 channels (Rattus norvegicus, UniProt P35524); test: Electrophysiological measurement of compound inhibition of CIC-1 in rat muscle (Gm, three micro-electrodes technique); format: cell-based; conditions: reduction of Gm in fibres of whole rat soleus muscles, approx. 30°C; n = number of experiments
T1 construct: from tissue; host or cells: intact soleus muscle of 12-14-week old Wistar rats
T1 sequence (P35524 1-994): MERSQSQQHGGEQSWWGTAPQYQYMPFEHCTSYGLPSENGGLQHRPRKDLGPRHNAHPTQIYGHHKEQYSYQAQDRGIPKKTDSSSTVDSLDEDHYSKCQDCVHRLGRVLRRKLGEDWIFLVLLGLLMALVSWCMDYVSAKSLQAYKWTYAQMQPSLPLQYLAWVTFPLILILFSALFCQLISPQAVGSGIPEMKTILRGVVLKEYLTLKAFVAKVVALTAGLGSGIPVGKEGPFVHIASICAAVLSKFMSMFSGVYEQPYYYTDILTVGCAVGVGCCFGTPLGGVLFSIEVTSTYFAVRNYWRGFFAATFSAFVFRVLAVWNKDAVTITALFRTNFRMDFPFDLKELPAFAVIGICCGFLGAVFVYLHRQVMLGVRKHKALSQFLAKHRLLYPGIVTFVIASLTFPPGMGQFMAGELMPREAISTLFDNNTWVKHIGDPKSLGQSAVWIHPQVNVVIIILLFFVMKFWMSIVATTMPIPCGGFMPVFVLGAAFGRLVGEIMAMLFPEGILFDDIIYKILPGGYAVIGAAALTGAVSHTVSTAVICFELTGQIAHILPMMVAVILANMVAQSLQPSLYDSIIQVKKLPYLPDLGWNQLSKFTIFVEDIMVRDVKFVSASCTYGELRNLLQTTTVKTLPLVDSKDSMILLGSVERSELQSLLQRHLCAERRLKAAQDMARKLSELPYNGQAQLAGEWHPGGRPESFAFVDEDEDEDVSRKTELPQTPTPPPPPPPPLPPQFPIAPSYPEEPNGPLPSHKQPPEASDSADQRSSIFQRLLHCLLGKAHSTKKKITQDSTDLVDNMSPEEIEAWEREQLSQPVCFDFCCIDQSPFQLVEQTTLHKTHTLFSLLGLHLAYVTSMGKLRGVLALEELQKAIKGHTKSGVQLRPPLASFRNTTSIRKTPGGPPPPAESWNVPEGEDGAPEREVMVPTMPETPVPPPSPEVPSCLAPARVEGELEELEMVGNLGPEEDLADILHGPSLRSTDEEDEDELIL
Source text: Table 2: Inhibition of CIC-1 ion channel using compounds of the invention

[2] = test system: female Lewis rats; test: Measurement of in situ muscle contractile characteristics (isometric hindlimb force, cisatracurium block); format: in vivo, rat; conditions: for average increase in twitch peaks: 12 Hz; for average increase in twitch peaks / average increase in tetanic force: cisatracurium infusion; for average increase in tetanic force: 80 Hz; for restore force to muscles in vivo: muscles partially inhibited by a neuromuscular blocker, summary in words
Description: Isometric hindlimb force was measured in 12-week old female Lewis rats in the presence and absence of compound.
Rats were placed under anesthesia with isoflurane (2-4%), intubated and subsequently connected to a micro ventilator (Microvent 1, Hallowell EMC, US). Two stimulation electrodes were inserted through the skin to stimulate the sciatic nerve. A small incision was made proximal to the ankle, to expose the Achilles tendon, which was tied by cotton string, and connected to a force transducer (Fort250, World Precision Instruments) with adjustable position (Vernier control). The Achilles tendon was then cut distal to the attached cotton string. The rat was placed on a heated pad, and to prevent movement artefacts from contraction of the ankle dorsiflexors, the foot was fixated by tape on a footplate.
Muscle contractile properties were assessed by applying an electrical current (under supramaximal voltage conditions) to the nerve and recording the force generated by the muscle. The muscle was stretched until maximal force was obtained, when assessed by 2 Hz stimulation. Isometric force was measured every 30 seconds at 12 Hz (Twitch), 10 pulses, and at every 5 minutes at 80 Hz (Tetanic) for 1 second (80 pulses). This stimulation pattern was employed throughout the experiment, expect in few cases where 80 Hz stimulation was replaced by 12 Hz (10 pulses). […] When the level of neuromuscular inhibition was stable, the test article was injected i.v. at the chosen concentration. The effect of test article was assessed on its ability to increase force generated from the stimulation pattern applied. The effect was assessed in the ability to increase force per se (tetanic, 80 Hz, stimulation), and the ratio between individual twitch peaks (12 Hz stimulation). The effect was monitored for at least 1 hour after injection of test article. In addition, the time from injection of test article to maximal effect on force (both twitch and tetanic) was noted and the time for the effect to disappear (return to baseline), if possible. When appropriate the infusion of neuromuscular blocking agent was ceased, with the stimulation pattern continued, and the return of force to control levels was monitored. Animals were sacrificed by cervical dislocation while still fully sedated.

[3] = test system: soleus muscles; test: Measurement of force in an in vitro model: isolated rat nerve-muscle preparation with tubocurarine; conditions: Rattus norvegicus, 40 min; percentage of initial force restored after 40 mins with 50 µM test compound; tubocurarine (115 nM) for 90 mins; read-out: Point increase
Description: Recovery of force is quantified as the percentage of the force prior to tubocurarine that is recovered by the compound.
The current invention relates to compounds that inhibit CIC-1 ion channels and increase muscle excitability and thereby improve muscle function in clinical conditions where muscle activation is failing. Such conditions result in loss of contractile function of skeletal muscle, weakness and excessive fatigue. In this series of experiments the compounds were tested for their ability to restore contractile function of isolated rat muscle when the neuromuscular transmission had been compromised akin to neuromuscular disorders.
Experimentally, soleus muscles from 4-5 wk old rats were isolated with the motor nerve remaining attached. The nerve-muscle preparations were mounted in experimental setups that enabled electrical stimulation of the motor nerve. Stimulation of the motor nerve led to activation of the muscle fibres and ensuing force production that was recorded.
After mounting the nerve-muscle preparation in the experimental setup, the contractile function of the muscle was initially assessed under the control conditions (Figure 2A). […] The experimental condition mimics the failing neuromuscular transmission in a range of neuromuscular disorders. After addition of tubocurarine the contractile force declined over the next 90 mins to 10-50 % of the control force. 50 µM of the test compound was then added and the contractile force recovered despite the continued presence of tubocurarine. To quantify the ability of the compound to restore force the percentage of the initial force that was restored was determined after 40 mins of compound exposure (Figure 2B) and the point increase is reported in Table 3. Table 3: Percentage increase of initial force that was restored using compounds of the invention

Compound	EC50 [1]	average increase in twitch peaks ([2]; 40 mg/kg i.v.)	average increase in tetanic force ([2]; 40 mg/kg i.v.)	restore force to muscles in vivo [2]	activation at 50 µM [3]	average increase in twitch peaks ([2]; 20 mg/kg i.v.)	average increase in tetanic force ([2]; 20 mg/kg i.v.)	average increase in twitch peaks ([2]; 42 mg/kg i.v.)	average increase in tetanic force ([2]; 42 mg/kg i.v.)
CC(C)[C@H](Oc1ccc(Br)cc1F)C(=O)O [Compound A-27, (2S)-2-(4-bromo-2-fluorophenoxy)-3-methylbutanoic acid]	4.5 µM	12.2%	36.4%	can restore force	46%				
[2H][C@@](CC)(Oc1ccc(Br)cc1)C(=O)O [Compound A-60, (2S)-2-(4-bromophenoxy)(2-^2H)butanoic acid]	7.5 ± 1 µM			can restore force	62%	18.5%	52.7%		
O=C(O)[C@H](CCF)Oc1ccc(Br)cc1 [Compound A-87, (2S)-2-(4-bromophenoxy)-4-fluorobutanoic acid]	4.5 ± 0.8 µM			can restore force	37%			5.8%	19.3%
